Experimental findings from patent publication US7968725B2, “Pyridinyl modulators of γ-secretase” (Janssen Pharmaceutica N.V., priority 2008, dated 2011) are described below.

The target of this assay is T1, γ-secretase (Homo sapiens, UniProt P49768).
T1 construct: endogenous in cells; host or cells: SKNBE2 cells carrying APP 695 wild type
As to the kind of experiment: Screening for γ-secretase-modulating activity in SKNBE2 cells carrying the APP 695-wild type (assay per Citron et al 1997). It counts as cell-based. The settings on record: SKNBE2 cells carrying APP 695-wild type. Here is the method:
Screening of the Compounds of the Invention for γ-Secretase-Modulating Activity
Screening was carried out using SKNBE2 cells carrying the APP 695-wild type, grown in DMEM/NUT-mix F12 (HAM) provided by Gibco (cat no. 31330-38) containing 5% Serum/Fe supplemented with 1% non-essential amino acids.
Cells were grown to near confluency.
The screening was performed using the assay as described in Citron et al (1997) Nature Medicine 3: 67.

pEC50: −log10 of the molar value.

`CC(C)CC(C(=O)O)c1cc(-c2ccc(C(F)(F)F)cc2)nc(-c2ccc(C(F)(F)F)cc2)c1` (stereo not drawn) [Example 1, 2-[2,6-Bis-(4-trifluoromethyl-phenyl)-pyridin-4-yl]-4-methyl-pentanoic acid] gave a pEC50 of 6.59.
The compound `CC(C)CC(C(=O)O)c1cc(-c2ccc(F)cc2)nc(-c2ccc(C(F)(F)F)cc2)c1` (stereo not drawn) [Example 2, 2-[2-(4-Fluoro-phenyl)-6-(4-trifluoromethyl-phenyl)-pyridin-4-yl]-4-methyl-pentanoic acid] returned an inhibition at 1 µM of 28%.
Turning to `CC(C)CC(C(=O)O)c1cc(-c2ccc(OC(F)(F)F)cc2)nc(-c2ccc(C(F)(F)F)cc2)c1` (stereo not drawn) [Example 3, 4-Methyl-2-[2-(4-trifluoromethoxy-phenyl)-6-(4-trifluoromethyl-phenyl)-pyridin-4-yl]-pentanoic acid], the pEC50 was 6.42.
For the compound `COc1ccc(-c2cc(C(CC(C)C)C(=O)O)cc(-c3ccc(C(F)(F)F)cc3)n2)cc1` (stereo not drawn) [Example 4, 2-[2-(4-Methoxy-phenyl)-6-(4-trifluoromethyl-phenyl)-pyridin-4-yl]-4-methyl-pentanoic acid], the inhibition at 1 µM was found to be 1%.
As for `CC(C)CC(C(=O)O)c1cc(-c2ccc(C(F)(F)F)cc2)nc(-c2cc(C(F)(F)F)cc(C(F)(F)F)c2)c1` (stereo not drawn) [Example 6, 2-[2-(3,5-Bis-trifluoromethyl-phenyl)-6-(4-trifluoromethyl-phenyl)-pyridin-4-yl]-4-methyl-pentanoic acid], the pEC50 was 6.57.
For the compound `CC(C)CC(C(=O)O)c1cc(-c2ccc(C(F)(F)F)cc2)nc(-c2cnc3ccccc3c2)c1` (stereo not drawn) [Example 7, 4-Methyl-2-[2-quinolin-3-yl-6-(4-trifluoromethyl-phenyl)-pyridin-4-yl]-pentanoic acid], the pEC50 was 6.17.
The compound `CC(C)CC(C(=O)O)c1cc(-c2ccc(C(F)(F)F)cc2)nc(-c2cc(F)cc(C(F)(F)F)c2)c1` (stereo not drawn) [Example 8, 2-[2-(3-Fluoro-5-trifluoromethyl-phenyl)-6-(4-trifluoromethyl-phenyl)-pyridin-4-yl]-4-methyl-pentanoic acid] gave a pEC50 of 6.92.
Consider `CC(C)CC(C(=O)O)c1cc(-c2ccc(C(C)C)cc2)nc(-c2ccc(C(F)(F)F)cc2)c1` (stereo not drawn) [Example 9, 2-[2-(4-Isopropyl-phenyl)-6-(4-trifluoromethyl-phenyl)-pyridin-4-yl]-4-methyl-pentanoic acid], for which the pEC50 was 6.14.
The same measure, in the same setting: to `CC(C)CC(C(=O)O)c1cc(-c2ccc(C(F)(F)F)cc2)nc(-c2cc(F)cc(F)c2)c1` (stereo not drawn) [Example 10, 2-[2-(3,5-Difluoro-phenyl)-6-(4-trifluoromethyl-phenyl)-pyridin-4-yl]-4-methyl-pentanoic acid] belongs 6.70.
Consider `Cc1ccc(-c2cc(C(CC(C)C)C(=O)O)cc(-c3ccc(C(F)(F)F)cc3)n2)cc1` (stereo not drawn) [Example 11, 4-Methyl-2-[2-p-tolyl-6-(4-trifluoromethyl-phenyl)-pyridin-4-yl]-pentanoic acid], for which testing at 1 µM gave an inhibition of 0%.
For `CC(C)CC(C(=O)O)c1cc(-c2ccc(C(F)(F)F)cc2)nc(-c2cccc(C(F)(F)F)c2)c1` (stereo not drawn) [Example 12, 4-Methyl-2-[2-(3-trifluoromethyl-phenyl)-6-(4-trifluoromethyl-phenyl)-pyridin-4-yl]-pentanoic acid], the inhibition at 1 µM stood at 32%.
As for `CC(C)CC(C(=O)O)c1cc(-c2ccc(-c3ccccc3)cc2)nc(-c2ccc(C(F)(F)F)cc2)c1` (stereo not drawn) [Example 13, 2-[2-Biphenyl-4-yl-6-(4-trifluoromethyl-phenyl)-pyridin-4-yl]-4-methyl-pentanoic acid], the inhibition at 1 µM stood at 49%.
The compound `CC(C)CC(C(=O)O)c1cc(-c2ccc(C(F)(F)F)cc2)nc(-c2ccc3ccccc3c2)c1` (stereo not drawn) [Example 14, 4-Methyl-2-[2-naphthalen-2-yl-6-(4-trifluoromethyl-phenyl)-pyridin-4-yl]-pentanoic acid] displayed an inhibition at 1 µM of 34%.
The compound `C=C(C)CC(C(=O)O)c1cc(-c2ccc(C(F)(F)F)cc2)nc(-c2ccc3ccccc3c2)c1` (stereo not drawn) [Example 15, 4-Methyl-2-[2-naphthalen-2-yl-6-(4-trifluoromethyl-phenyl)-pyridin-4-yl]-pent-4-enoic acid] yielded an inhibition at 1 µM of 19%.
As for `C=C(C)CC(C(=O)O)c1cc(-c2ccc(C(F)(F)F)cc2)nc(-c2ccc(C(F)(F)F)cc2C(F)(F)F)c1` (stereo not drawn) [Example 16, 2-[2-(2,4-Bis-trifluoromethyl-phenyl)-6-(4-trifluoromethyl-phenyl)-pyridin-4-yl]-4-methyl-pent-4-enoic acid], the inhibition at 1 µM turned out to be 23%.
Take `CC(C)CC(C(=O)O)c1cc(-c2ccc(C(F)(F)F)cc2)nc(-c2ccc(C(F)(F)F)cc2C(F)(F)F)c1` (stereo not drawn) [Example 17, 2-[2-(2,4-Bis-trifluoromethyl-phenyl)-6-(4-trifluoromethyl-phenyl)-pyridin-4-yl]-4-methyl-pentanoic acid]: at 1 µM the inhibition was 64%.
Consider `C=C(C)CC(C(=O)O)c1cc(-c2ccc(C(F)(F)F)cc2)nc(-c2cncc3ccccc23)c1` (stereo not drawn) [Example 18, 2-[2-Isoquinolin-4-yl-6-(4-trifluoromethyl-phenyl)-pyridin-4-yl]-4-methyl-pent-4-enoic acid], for which the inhibition at 1 µM stood at 14%.
On to `CC(C)CC(C(=O)O)c1cc(-c2ccc(C(F)(F)F)cc2)nc(-c2cncc3ccccc23)c1` (stereo not drawn) [Example 19, 2-[2-Isoquinolin-4-yl-6-(4-trifluoromethyl-phenyl)-pyridin-4-yl]-4-methyl-pentanoic acid], for which testing at 1 µM gave an inhibition of 14%.
Take `C=C(C)CC(C(=O)O)c1cc(-c2ccc(C(F)(F)F)cc2)nc(-c2cccc(F)c2F)c1` (stereo not drawn) [Example 20, 2-[2-(2,3-Difluoro-phenyl)-6-(4-trifluoromethyl-phenyl)-pyridin-4-yl]-4-methyl-pent-4-enoic acid]: the inhibition at 1 µM was 9%.
As for `CC(C)CC(C(=O)O)c1cc(-c2ccc(C(F)(F)F)cc2)nc(-c2cccc(F)c2F)c1` (stereo not drawn) [Example 21, 2-[2-(2,3-Difluoro-phenyl)-6-(4-trifluoromethyl-phenyl)-pyridin-4-yl]-4-methyl-pentanoic acid], at 1 µM the inhibition was 12%.
On the same count and under the same terms, to `CC(C)CC(C(=O)O)c1cc(-c2ccc(C(F)(F)F)cc2)nc(-c2ccc(F)cc2F)c1` (stereo not drawn) [Example 22, 2-[2-(2,4-Difluoro-phenyl)-6-(4-trifluoromethyl-phenyl)-pyridin-4-yl]-4-methyl-pentanoic acid] belongs 5%; to `C=C(C)CC(C(=O)O)c1cc(-c2ccc(C(F)(F)F)cc2)nc(-c2ccc(F)cc2F)c1` (stereo not drawn) [Example 23, 2-[2-(2,4-Difluoro-phenyl)-6-(4-trifluoromethyl-phenyl)-pyridin-4-yl]-4-methyl-pent-4-enoic acid], 0%.
Take `C=C(C)CC(C(=O)O)c1cc(-c2ccc(C(F)(F)F)cc2)nc(-c2cc(F)ccc2F)c1` (stereo not drawn) [Example 24, 2-[2-(2,5-Difluoro-phenyl)-6-(4-trifluoromethyl-phenyl)-pyridin-4-yl]-4-methyl-pent-4-enoic acid]: 1 µM produced 22% inhibition.
Consider `CC(C)CC(C(=O)O)c1cc(-c2ccc(C(F)(F)F)cc2)nc(-c2cc(F)ccc2F)c1` (stereo not drawn) [Example 25, 2-[2-(2,5-Difluoro-phenyl)-6-(4-trifluoromethyl-phenyl)-pyridin-4-yl]-4-methyl-pentanoic acid], for which the inhibition at 1 µM is 19%.
